Assay results taken from patent US10682316B2 (NOVA SOUTHEASTERN UNIVERSITY, priority 2010, dated 2020).
Where “and” joins values, the source holds several entries; their conditions need not be identical. Identical values can stand only once. Entries after “also recorded” stand apart in the source; their conditions may differ. Like-named read-outs stand apart in the source and are kept apart here.

What was measured:
[1] = Particle size measurement before and after size reduction (Mastersizer, NiComp 370, Zetasizer); assay type: physicochemical; details: epinephrine base
Description: These techniques involve the use of oversaturated solutions of various solvents, particularly water and isopropanol, at various temperatures and pressures ranging from about 8,000 psi to 30,000 psi and to about 8.3° to 43.3° C. under various passes. […] The particles were lyophilized (freeze-dried) using a bench top lyophilizer (ART Inc.).

[2] = Visual observation of discoloration/stability after processing; assay type: physicochemical; details: epinephrine bitartrate compared with epinephrine base
Source text: The main problem was discoloration (a brown color formed) due to degradation.

| Compound | Amount Dissolved % (solubility in water) [%] | mean±SD size before size reduction ([1]; Mastersizer (FIG. 3)) [μm] | Size Before Fabrication (nm) ([1]; Mastersizer, three measurements and mean) | Amount Dissolved % (solubility in acetone) [%] | Amount Dissolved % (solubility in acetonitrile) [%] | Amount Dissolved % (solubility in choloroform) [%] | Amount Dissolved % (solubility in dichloromethane (DCM)) [%] | Amount Dissolved % (solubility in ethyl acetate) [%] | Amount Dissolved % (solubility in hexane) [%] | Amount Dissolved % (solubility in isopropyl alcohol) [%] | Amount Dissolved % (solubility in methanol) [%] | Amount Dissolved % (solubility in tetrahydrofuran (THF)) [%] | Stability / discoloration under fabrication conditions (nanomilling) [2] |
| --- | --- | --- | --- | --- | --- | --- | --- | --- | --- | --- | --- | --- | --- |
| CNC[C@H](O)c1ccc(O)c(O)c1 [Epinephrine Base, epinephrine] | 2.67 | 32.91±0.33 | 33030 nm and 32530 nm and 33160 nm | – | – | – | – | – | – | – | – | – | – |
| CNC[C@H](O)c1ccc(O)c(O)c1 [Epinephrine Bit, epinephrine bitartrate] | – | – | – | 1.56 | 0.77 | 0.09 | 0.00 | 0.63 | 0.03 | 0.62 | 10.45 | 7.76 | more stable than the epinephrine base; also recorded: did not show any discoloration |
